# pEC50: −log10 of the molar value. Active and inactive are the calls of the source.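 Rule for the calls: active = compounds whose mean EC50, the dose giving half the maximal reporter activation, is at or below a set limit; inactive = the rest.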
# Molecular target: CHO-CHOP luciferase reporter, UPR activation, luminescence
# Assay: activators of PERK-eIF2a-CHOP UPR arm, confirmation, CHO-CHOP cells, luciferase luminescence (AID 489024);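 note: compounds added alone to reporter cells with no tunicamycin stress co-treatment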
SMILES,EC50,pEC50
Cc1ccc(-c2nc(SCC(=O)Nc3cc(C)on3)c3c(=O)n(C)c(=O)n(C)c3n2)cc1,> 80 µM (inactive),
Cc1cccc(Nc2nc(-c3ccccn3)cs2)n1,,4.97
CC1(C)CCSC(/C=C/c2ccccc2)=N1,> 80 µM (inactive),
Cc1nc([N+](=O)[O-])c(Br)n1CC(=O)c1ccc(Cl)cc1,> 80 µM (inactive),
CCOc1ccccc1N=Cc1c(O)c2ccccc2oc1=O,,5.10
Brc1ccc(-c2ccc(/C=N/Nc3nncc(-c4ccccc4)n3)o2)cc1,,4.72
CC1=NOC(=O)/C1=C/c1ccc(-c2ccc(Cl)cc2)o1,,5.00
CN(C)C(=O)CSc1cccc2cccnc12,,5.09
O=C(Nc1nc(-c2ccc3ccccc3c2)cs1)c1ccc(N2C(=O)CCC2=O)cc1,> 80 µM (inactive),
Cc1ccc(-c2nn(-c3ccccc3)cc2C=C2C(=O)CC(C)(C)CC2=O)cc1,,4.88
COc1ccc(CC2=CC(=O)c3ccccc3C2=O)cc1,,4.91
O=C(Oc1oc(-c2ccco2)nc1C=Nc1ccc(Cl)cc1)c1ccco1,,5.05
COc1ccc2[nH]cc(C(=O)CCl)c2c1,> 80 µM (inactive),
Cc1ccc(-c2nc(N/N=C/c3cccc([N+](=O)[O-])c3)c3ccccc3n2)cc1,inactive,
CC(C)CNC(=O)c1coc(=O)c(Br)c1,,4.92
CN(C)CC(C(=O)c1ccccc1)c1ccccc1 (stereo unspecified),,5.17
O=C1NC(=O)N(c2ccccc2)C(=O)/C1=C\C=C\c1ccccc1,,5.35
CCCCCCCCCn1c2c(c(=N)c3c1CCC3)CCC2,> 80 µM (inactive),
Cc1ccccc1S(=O)(=O)NC1OC(=O)C(Cl)=C1Cl (stereo unspecified),> 80 µM (inactive),
O=C(/C=C/Sc1ccccc1)c1ccccc1,,5.16
O=C(N/N=C\c1cc2c(cc1Cl)OCO2)c1ccc(Br)s1,> 80 µM (inactive),
Cc1cc(C(=O)CCl)c(C)n1-c1cccc(S(=O)(=O)N2CCOCC2)c1,,5.13
O=C(Nc1ccc(Cl)cc1)/C(=C/c1cccc(O)c1)c1nc2ccccc2s1,> 80 µM (inactive),

SMILES,EC50,pEC50
O=C(NC(=S)Nc1ccc(NC(=O)c2cccs2)cc1)c1cc2ccccc2o1,inactive,
CCN(CC)c1ccc(/C=C2\C(=O)N(c3nnc(C)c(=O)[nH]3)N=C2C)cc1,inactive,
O=C(CCl)Nc1ccc(-c2ccccc2)cc1,> 80 µM (inactive),
Cc1ccc(N2C(=O)NC(=O)/C(=C/C=C/c3ccco3)C2=O)cc1,,4.94
Cc1ccccc1/C=C/C(=O)c1ccc([N+](=O)[O-])o1,,5.01
COc1cc(/C=C2\C(=O)ON=C2c2ccc(Cl)cc2)ccc1O,,4.93
CN(C)S(=O)(=O)c1cccc(NC(=O)CSc2cccc3cccnc23)c1,,5.12
Oc1ccc(/C=N/Nc2ccc(C(F)(F)F)cn2)cc1O,,5.23
Cc1cccc(-n2ncc(Cl)c(Cl)c2=O)c1,,5.11
CCOC(=O)C(=Cc1ccc(-n2cncn2)cc1)C(=O)OCC,,4.94
O=C(C=C=Nc1ccccc1)C(=O)N=C=Cc1ccccc1,,5.24
Cc1ccc2nc(-c3ccc(O)c(O)c3)cn2c1,,5.44
O=[N+]([O-])/C=C\c1ccc(N2CCOCC2)cc1,,4.76
COCc1ccc(O)c2ncccc12,,4.82
C/C(=N\NC(=O)c1cc(Br)ccc1O)c1ccccn1,,5.18
Cn1c(-c2cccc(OCc3ccccc3)c2)nc2c1c(=O)[nH]c(=O)n2Cc1ccccc1,,4.86
O=C(Nc1cccc(-c2nc3cccnc3s2)c1)C1c2ccccc2Oc2ccccc21,,5.16
Cc1ccc(NC(=O)c2ccc(N/N=C/c3cccc(O)c3)c([N+](=O)[O-])c2)cc1,,5.10
COc1ccc(CCN2CCC(Nc3nc4ccccc4n3Cc3ccc(F)cc3)CC2)cc1,,5.01
Oc1ccc(CN2CCc3ccccc3C2)c2cccnc12,,4.86
COc1cc(C(Nc2ccccn2)c2ccc3ccc(C)nc3c2O)cc(OC)c1O (stereo unspecified),,5.17
C/C(=N\NC(=O)c1ccc(F)cc1)c1ccccn1,,5.08
Cc1ccc(C)c2sc(N3CCN(C(=O)c4ccc([N+](=O)[O-])o4)CC3)nc12,,4.72

SMILES,EC50,pEC50
CCOc1cc(C=C(C(=O)OC)C(=O)OC)ccc1OCc1ccc([N+](=O)[O-])cc1,,5.17
CCCC[C@@H](C)C[C@@H](C)C(=O)N(C)[C@@H](CC(C)C)C(=O)N[C@H](C(=O)N(C)[C@H](C(=O)N1C[C@@H](O)C[C@H]1C(=O)N1C(=O)C=C[C@@H]1C)C(C)C)C(C)OC(C)=O (stereo partly specified),,4.98
O=C(NC1CCCC1)C(c1ccc(Cl)cc1)N(Cc1ccc(F)cc1)C(=O)CCl (stereo unspecified),,5.08
CCc1ccc2c(c1)C1(NN=C(c3ccccc3)S1)C(=O)N2 (stereo unspecified),,5.47
O=C(/C=C/Sc1ccccc1)c1ccc(Cl)cc1,,4.97
COc1ccccc1N1C(=O)C=C(Sc2nc(C)cc(C)n2)C1=O,> 80 µM (inactive),
CCOC(=O)C(=Cc1ccc(-n2ccnc2)cc1)C(=O)OCC,,5.02
Cc1ccc2[nH]cc(C(=O)CCl)c2c1,,5.12
FC(F)(F)c1nnc(-c2ccccc2)nc1Sc1ccccc1,,5.09
Cc1cc(NC(=O)c2cc(-c3ccccn3)nc3ccc(Br)cc23)no1,> 80 µM (inactive),
Cc1ccc(-c2nnc(-c3ccc(NC(=O)c4cccs4)cc3)o2)cc1,,4.80
COc1ccc(N2C(=O)/C(=C/C=C/c3ccccc3[N+](=O)[O-])C(=O)NC2=S)cc1,> 80 µM (inactive),
COc1ccc(NC(=O)C(=O)N/N=C\c2ccc(CNC(=O)C(=O)Nc3ccc(C)c(C)c3)o2)c(OC)c1,,5.08
CCOc1cc(/C=N/NC(N)=S)cc(Br)c1OCc1ccccc1C,inactive,
C[C@@H](NC(=O)c1coc(=O)c(Br)c1)c1ccccc1,,5.03
O=[N+]([O-])c1ccc(C=Nc2ccc(Cl)cc2Cl)s1,,4.86
O=C(COc1ccc2ccccc2c1)N1CCN(Cc2c[nH]c3ccccc23)CC1,,4.87
S=C1SCN(Cc2ccco2)CN1Cc1ccco1,,4.94
Nc1cccc(-c2nc3cc(S(=O)(=O)c4ccc5oc(-c6cccc(N)c6)nc5c4)ccc3o2)c1,inactive,
Cc1ccc(C(=O)C(C(=O)/C=C/c2ccccc2)=C2SCCCS2)cc1,,4.84
CCOC(=O)c1ccc(N2C(=O)C=CC2=O)cc1,> 80 µM (inactive),
CC(C)c1nnc(NC(=O)CCS(=O)(=O)c2nc(-c3cccs3)cc(C(F)(F)F)n2)s1,,4.87
Cc1ccc(/C=C2\CCC3=C2OC(N)=C(C#N)C3c2ccc(C)cc2)cc1 (stereo unspecified),,5.34

SMILES,EC50,pEC50
C/C(=N\NC(=O)c1ccccc1OCc1ccc(F)cc1)c1ccccn1,,5.31
Oc1ccc2ccccc2c1N=Nc1ccccn1,,5.07
Cc1ccc(NC(=O)c2nc(S(=O)(=O)Cc3ccccc3C)ncc2Cl)cc1C,,5.07
CCOc1cccc(C(=O)Nc2cccc(-c3nnc(-c4ccc(C)cc4)o3)c2)c1,> 80 µM (inactive),
CC1CCC/C=C/C2CC(O)CC2C(O)/C=C/C(=O)O1 (stereo unspecified),,5.87
COc1cc(NS(=O)(=O)c2ccc3ccccc3c2)c2ncccc2c1,,5.12
CC(C)(C)C(=O)OCc1nc(-c2ccc(O)c(O)c2)cs1,,5.86
N#C/C(=C\c1ccc([N+](=O)[O-])o1)C(=O)Nc1ccc(F)cc1,,4.77
CC(C)(C)N1CSC(=S)N(Cc2ccccc2)C1,,4.99
CN1CSC(=S)N(C)C1,> 80 µM (inactive),
Cc1ccc(NC(=O)Cn2ncc(Cl)c(Cl)c2=O)cc1S(=O)(=O)N1CCCCC1,,5.19
COc1nc(N)nc(NC(=O)c2cccs2)c1N=O,,4.75
CCOC(=O)c1c(C)oc2c1c(C(c1cccnc1)N1CCCCC1)c(O)c1ccccc12 (stereo unspecified),,4.82
CC(C)N=c1scc(-c2ccco2)n1/N=C/c1ccc(O)c(O)c1,,5.96
Oc1ccc(CN2CCC(Cc3ccccc3)CC2)c2cccnc12,,5.27
O=c1[nH]c(-c2ccc(-c3cccc(Cl)c3)o2)nc2ccccc12,,4.89
CCCCn1c(/C=N/Nc2nc3ccccc3[nH]2)nc2ccccc21,,4.91
O=[N+]([O-])c1ccc(Sc2nnnn2-c2ccccc2)nc1,> 80 µM (inactive),
O=C(N/N=C/c1ccccn1)c1ccc(Cl)c(Cl)c1,,5.53
Cc1cccc(C)c1NC(=O)c1nc(S(=O)(=O)Cc2ccccc2)ncc1Cl,,4.91
Cc1[nH]c2ccccc2c1CN1CCC(Cc2ccccc2)CC1,,4.95
COc1ccc(OC)c(Nc2nc(-c3ccc(O)c(O)c3)cs2)c1,,5.81
FC(F)(F)c1nnc2c(Sc3ccc(Cl)cc3)nc3ccccc3n12,,5.39

SMILES,EC50,pEC50
Cc1ccc(F)cc1N=Cc1c(O)c2ccccc2oc1=O,,5.21
Oc1ccc(/C=N/N2CCN(C3c4ccccc4-c4ccccc43)CC2)cc1O,inactive,
Cn1c(SCC(=O)NCC2CCCO2)ncc(C(=O)Nc2ccc(Cl)cc2)c1=O (stereo unspecified),,4.80
Cc1cc(C)nc(SCc2ccc(C(=O)N/N=C/c3cccc(O)c3O)cc2)n1,,5.00
O=C1CC(c2cccc(Cl)c2)CC(O)=C1C=Nc1ccccc1 (stereo unspecified),,4.79
COc1ccc(C(C[N+](=O)[O-])n2nc(C)cc2C)cc1 (stereo unspecified),,5.04
Cc1ccc(S(=O)(=O)N(C(=O)c2ccncc2)c2ccc(OC(=O)c3ccncc3)c3ccccc23)c(C)c1,,4.78
Cc1cccc(N=Nc2ccc(O)c3ncccc23)c1,,5.14
CC1(C)CC(=O)C2=C(C1)Oc1nc3ccccc3cc1C2C(C#N)C#N (stereo unspecified),> 80 µM (inactive),
COc1ccc(/C=N/Nc2cc(C)nc(-n3nc(C)cc3C)n2)cc1,,4.98
Cc1ccn2cc(-c3ccc(O)c(O)c3)nc2c1,,5.27
C=C(C(=O)c1ccccc1)C(C(=C)C(=O)c1ccccc1)c1ccc(OC)cc1,,4.82
CCOC(=O)N1CCN(Cc2cc(Cl)c3cccnc3c2O)CC1,inactive,
COc1cccc(/C=N/Nc2nc(Nc3ccccc3)nc(-n3nc(C)cc3C)n2)c1O,,5.37
COc1cc(NC(=O)c2cncc(-c3ccc(C#N)cc3)c2)cc(C(=O)Nc2cccc(C(F)(F)F)c2)c1,inactive,
COc1ccccc1-c1cc(C(F)(F)F)nc(S(=O)(=O)CCCC(=O)NCc2ccc(F)cc2)n1,,5.12
O=C(CN1CCN(c2ccccc2F)CC1)c1ccc(O)c(O)c1,inactive,
Clc1ccc(-n2nnnc2Sc2ncnc3sccc23)cc1,> 80 µM (inactive),
CCOC(=O)c1c(C)oc2c1c(C(c1ccccc1)N1CCOCC1)c(O)c1ccccc12 (stereo unspecified),,4.74

# From PubChem BioAssay AID489024 (Sanford-Burnham Center for Chemical Genomics, 2010)
